Reference: the supplement of paper PMC10307832

Tests used:
Test in all cases: relative viability (nuclei count vs DMSO), 5 days (fraction); higher = more cells survive
[1] = compound: CC[C@H](Nc1ncnc2[nH]cnc12)c1nc2cccc(F)c2c(=O)n1-c1ccccc1 [Idelalisib] + C[C@]1(O)C[C@@H](c2nc(-c3ccc4ccc(-c5ccccc5)nc4c3)c3c(N)nccn32)C1 [Linsitinib] (partner 1 µM)
In short: (§1)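 Five library-drug doses in √10 steps were combined with a fixed anchor-drug dose, or a single drug was given alone, by pin tool to lung cancer cell lines in 1536-well plates the day after seeding. Nuclei were stained and counted after 5 days. Relative viability is the nuclei count in treated wells over that in vehicle wells, taken as the median of duplicate plates.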

[2] = compound: CC[C@H](Nc1ncnc2[nH]cnc12)c1nc2cccc(F)c2c(=O)n1-c1ccccc1 [Idelalisib] + N=C(N)NC(=N)NCCc1ccccc1 [Phenformin] (partner 250 µM)
In short: as §1

[3] = compound: Nc1nc2[nH]cc(CCc3ccc(C(=O)N[C@@H](CCC(=O)O)C(=O)O)cc3)c2c(=O)[nH]1 [Pemetrexed] + CC(=O)c1c(C)c2cnc(Nc3ccc(N4CCNCC4)cn3)nc2n(C2CCCC2)c1=O [Palbociclib] (partner 0.5 µM)
In short: as §1

[4] = compound: Nc1nc2[nH]cc(CCc3ccc(C(=O)N[C@@H](CCC(=O)O)C(=O)O)cc3)c2c(=O)[nH]1 [Pemetrexed] + COc1cccc2cc(-c3nc([C@H]4CC[C@H](C(=O)O)CC4)n4ncnc(N)c34)[nH]c12 [OSI-027] (partner 0.5 µM)
In short: as §1

| Cell Line | relative viability ([1]; first compound 0.04 µM) | relative viability ([1]; first compound 0.1265 µM) | relative viability ([1]; first compound 0.4 µM) | relative viability ([1]; first compound 1.265 µM) | relative viability ([1]; first compound 4 µM) | relative viability ([2]; first compound 0.04 µM) | relative viability ([2]; first compound 0.1265 µM) | relative viability ([2]; first compound 0.4 µM) | relative viability ([2]; first compound 1.265 µM) | relative viability ([2]; first compound 4 µM) | relative viability ([3]; first compound 0.002 µM) | relative viability ([3]; first compound 0.006325 µM) | relative viability ([3]; first compound 0.02 µM) | relative viability ([3]; first compound 0.06325 µM) | relative viability ([3]; first compound 0.2 µM) | relative viability ([4]; first compound 0.002 µM) | relative viability ([4]; first compound 0.006325 µM) | relative viability ([4]; first compound 0.02 µM) | relative viability ([4]; first compound 0.06325 µM) | relative viability ([4]; first compound 0.2 µM) |
| --- | --- | --- | --- | --- | --- | --- | --- | --- | --- | --- | --- | --- | --- | --- | --- | --- | --- | --- | --- | --- |
| NCI-H2023 | 0.662 | 0.556 | 0.515 | 0.547 | 0.273 | 0.407 | 0.391 | 0.363 | 0.361 | 0.351 | 0.347 | 0.387 | 0.384 | 0.323 | 0.125 | 0.248 | 0.38 | 0.464 | 0.295 | 0.166 |
| Calu-6 | 1.06 | 1 | 0.889 | 0.942 | 0.93 |  |  |  |  |  |  |  |  |  |  |  |  |  |  |  |
| SW 900 |  |  |  |  |  | 0.683 | 0.458 | 0.634 | 0.614 | 0.395 | 0.549 | 0.564 | 0.604 | 0.516 | 0.521 | 0.633 | 0.608 | 0.689 | 0.591 | 0.464 |
| HOP-62 | 1.04 | 1.04 |  | 1.07 | 0.884 | 0.558 | 0.656 | 0.589 | 0.672 | 0.654 | 0.363 | 0.479 | 0.555 | 0.452 | 0.37 | 0.728 | 0.856 | 0.936 | 0.825 | 0.729 |
| H3255 | 0.959 | 1.01 | 0.829 | 0.857 | 0.801 | 0.359 | 0.329 | 0.351 | 0.352 | 0.336 | 0.351 | 0.319 | 0.312 | 0.31 | 0.328 | 0.542 | 0.55 | 0.598 | 0.659 | 0.585 |
| NCI-H1734 | 0.944 | 0.814 | 0.765 | 0.791 | 0.597 | 0.455 | 0.446 | 0.344 | 0.377 | 0.377 | 0.192 | 0.358 | 0.366 | 0.333 | 0.346 | 0.65 | 0.564 | 0.675 | 0.571 | 0.53 |
| SK-MES-1 | 1.02 | 0.984 | 0.934 | 0.855 | 0.703 | 0.704 | 0.675 | 0.663 | 0.686 | 0.674 | 0.316 | 0.305 | 0.353 | 0.33 | 0.327 | 0.72 | 0.611 | 0.615 | 0.572 | 0.554 |
| NCI-H1792 | 0.242 | 0.498 | 0.508 | 0.443 | 0.461 | 0.335 | 0.182 |  | 0.225 | 0.208 | 0.7 | 0.608 | 0.685 | 0.671 | 0.642 | 0.735 | 0.808 | 0.778 | 0.715 | 0.744 |
| NCI-H1650 |  |  |  |  |  | 0.439 | 0.341 | 0.35 | 0.371 | 0.379 | 0.284 | 0.299 | 0.381 | 0.247 | 0.245 | 0.674 | 0.531 | 0.714 | 0.356 | 0.304 |
| NCI-H2342 |  |  |  |  |  | 0.597 | 0.584 | 0.514 | 0.614 | 0.482 | 0.494 | 0.505 | 0.57 | 0.514 | 0.521 | 0.537 | 0.618 | 0.593 | 0.633 | 0.698 |
| IA-LM | 0.426 | 0.83 | 0.709 | 0.541 | 0.404 |  |  |  |  |  |  |  |  |  |  |  |  |  |  |  |
| EBC-1 | 0.762 | 1.03 | 0.907 | 0.84 | 0.637 |  |  |  |  |  |  |  |  |  |  |  |  |  |  |  |
| ChaGo-K-1 |  |  |  |  |  | 0.49 | 0.453 | 0.424 | 0.477 | 0.436 | 0.959 | 0.888 | 0.971 | 0.668 | 0.369 | 0.572 | 0.59 | 0.61 | 0.317 | 0.23 |
| A549 | 0.53 | 0.544 | 0.416 | 0.589 | 0.446 | 0.36 | 0.182 |  | 0.154 | 0.178 |  |  |  |  |  |  |  |  |  |  |
| NCI-H1563 | 1.16 | 1.29 | 1.07 | 1.15 | 0.832 | 0.666 | 0.666 | 0.612 | 0.631 | 0.638 |  |  |  |  |  | 0.731 | 0.695 | 0.803 | 0.728 | 0.778 |
| NCI-H1703 | 1.31 | 0.976 | 0.669 | 1.2 | 0.474 |  |  |  |  |  |  |  |  |  |  |  |  |  |  |  |
| NCI-H1299 | 1.03 | 1.07 | 0.978 | 0.959 | 0.928 |  |  |  |  |  |  |  |  |  |  |  |  |  |  |  |
| NCI-H522 |  |  |  |  |  | 0.675 | 0.66 | 0.641 | 0.761 | 0.634 | 1.22 | 0.82 | 1.09 | 0.985 | 0.843 | 0.794 | 0.65 | 0.796 | 0.706 | 0.676 |
| NCI-H1648 |  |  |  |  |  |  |  |  |  |  | 0.255 | 0.24 | 0.24 | 0.282 | 0.302 | 0.253 | 0.268 | 0.22 |  | 0.26 |
| NCI-H2170 |  |  |  |  |  | 0.443 | 0.449 | 0.403 | 0.408 | 0.373 | 0.371 | 0.396 | 0.435 | 0.416 | 0.378 | 0.656 | 0.698 | 0.692 | 0.708 | 0.744 |
| NCI-H1623 |  |  |  |  |  | 0.596 | 0.619 | 0.537 | 0.529 | 0.547 |  |  |  |  |  | 0.406 | 0.451 | 0.552 | 0.462 | 0.426 |
| NCI-H596 | 1.07 | 1.06 | 0.899 | 1.19 | 1.03 | 0.75 | 0.765 | 0.689 | 0.731 | 0.616 |  |  |  |  |  | 0.705 | 0.691 | 0.642 | 0.632 | 0.414 |
